Test results reported in patent publication US20250360142A1, “NOVEL ATP-SENSITIVE POTASSIUM CHANNEL POTENTIATORS, THEIR PREPARATION AND USE” (RHYTHM PHARMACEUTICALS, INC., priority 2022, published 2025).

Columns and labels:
[1] = tested on: INS-1E cells; experiment: Glucose stimulated insulin secretion assay (GSIS) in INS-1E cells; assay type: cell-based, rat; details: for IC50 / inhibition at 10 µM: Rattus norvegicus; for IC50 / % inhibition of Insulin (Average Inhibition (%)): INS-1E cell line; for inhibition at 10 µM: INS-1E cells
Description: (§1) INS-1E, rat pancreatic tumor (insulinoma) cells were used in the GSIS assay. INS-1E cells were thawed and incubated in culture medium (CM) (RPMI 1640+Glucose q.s., HEPES 25 mM, Na-Pyruvat 1 mM, 2-Mercaptoethanol 50 μM, Fetal Calf Serum; heat inactivated (FCS) 10%, Penicillin/Streptomycin 100 U/ml) at 37° C.; 5% CO2 in a humidified atmosphere. 96 welled plates are coated with Matrigel by incubating the plates with 1 ml pre-diluted 1:10 with cold basal medium with 100 μl/well at 37° C. for 1 hour. Matrigel is then removed and replaced with 100 μl CM. Cells are then seeded into the wells as 70 000 cells/well. CM is refreshed with 200 μl fresh CM on the third day. CM is refreshed again with 200 μl fresh CM on the sixth day. GSIS assay is performed on the seventh day and cells in wells are washed with PKrebs®BSA and incubated with 100 μL/well for 2 h. Secretion plates are placed in an incubator at 37° C., 5% C02 and saturated humidity for 60 min. Meanwhile, lysis solution is prepared by adding 1 tablet of protease inhibitor/10 mL TETG solution and kept at 4° C. until the end of the experiment. The other incubation buffers are prepared without adding pharmacological compounds, aliquoted and then placed in a water bath at 37° C. The samples are prepared including negative (βKrebs®B0=0 mM Glucose) and positive controls (PKrebs®B20=20 mM Glucose) and each compound to be tested is diluted in DMSO as having a series of final concentration including 10.00, 4.00, 1.60, 0.64, 0.26, 0.10, 0.04, 0.02 μM.
(§2) After 2 hours of starvation, glucose stimulation and treatments are initiated. KRB Buffer from cells is removed by pipetting. The solutions are homogenized and the cells are treated with 90 µL/well. 10 μl from 10-fold compound dilution is added to the assay plate (final 100 μl/well) according to the following layout for each compound to be tested.
(§3) Incubation time is 40 minutes. Plates are placed in an incubator at 37° C., 5% CO2 and saturated humidity. After incubation, 80 μL of supernatants are collected without disrupting the cell layer and stored at 4° C. or on ice until centrifugation. Remaining medium are removed from each well and 100 μL/well of cold lysis solution is added and incubated for minimum 2 minutes at room temperature. Cell lysis is observed under microscope and waited for maximum for 5 more minutes until the lysis is complete. Cell lysates are collected and all samples including supernatants are centrifuged at 700×g, 5 min at 4° C. 30 μL of each samples are transferred into aliquots for ELISA. ELISA is performed with HTRF Assay Kit comprising an insulin high range kit supplied by Cisbio/Perkin Elmer. 5 μl of each Insulin standard and 5 μl of either supernatant or lysate are transferred on HTRF plate. 40 μl/well of Anti-insulin—XL665 and 20 μl/well of Anti-insulin—EU are added to each well and the plate is read on HTRF compatible reader (fluorescence 620 nm & 665 nm).

[2] = tested on: EndoC-βH1 Cell Line; experiment: GSIS assay in EndoC-βH1 cell line; assay type: cell-based
Description: as §1, §2, §3
GSIS experiments were also performed in other cell lines, e.g., EndoC-βH1, a canonical cell line for screening new therapeutic compounds.

IC50 [2] [nM]	Compound	also measured
< 500	O=S1(=O)N=C(NC2CC23CCC3)Nc2cc(Cl)c(F)cc21 (stereo not shown) [Compound 15, 6-chloro-7-fluoro-3-(spiro[2.3]hexan-1-ylamino)-4H-benzo[e][1,2,4]thiadiazine 1,1-dioxide]	IC50 [1]: < 500 nM
< 500	O=S1(=O)N=C(NC23CC(C2)C3)Nc2ccc(F)cc21 [Compound 1, 3-(bicyclo[1.1.1]pentan-1-ylamino)-7-fluoro-4H-benzo[e][1,2,4] thiadiazine 1,1-dioxide]	IC50 [1]: 500 to 1000 nM; inhibition at 10 µM [1]: ≥ 50%
1000 to 2000	O=S1(=O)N=C(NC2CC23CC3)Nc2ccc(F)cc21 (stereo not shown) [Compound 8, 7-fluoro-(spiro[2.2]pentan-1-ylamino)-4H-benzo[e][1,2,4]thiadiazine 1,1-dioxide]	
< 500	O=S1(=O)N=C(NC2CC23CC3)Nc2cc(Cl)c(F)cc21 (single isomer, unassigned) [Compound 30, (R*)-6-chloro-7-fluoro-3-(spiro[2.2]pentan-1-ylamino)-4H-benzo[e][1,2,4]-thiadiazine 1,1-dioxide]	
≥ 2000	O=S1(=O)N=C(NC23CC(F)(C2)C3)Nc2cc(Cl)c(F)cc21 [Compound 19, 6-chloro-7-fluoro-3-((3-fluorobicyclo[1.1.1]pentan-1-yl)amino)-4H-benzo[e][1,2,4]thiadiazine 1,1-dioxide]	% inhibition of Insulin (Average Inhibition (%)) [1]: C (C is equal to 10-25% inhibition)
500 to 1000	O=S1(=O)N=C(NC23CCC(C2)C3)Nc2ccc(F)cc21 [Compound 4, 3-(bicyclo[2.1.1]hexan-1-ylamino)-7-fluoro-4H-benzo[e][1,2,4]thiadiazine 1,1-dioxide]	
≥ 2000	C[C@@H]1C[C@H]1NC1=NS(=O)(=O)c2cc(F)c(Cl)cc2N1 (stereo in doubt) [Compound 27, 6-chloro-7-fluoro-3-(((1R*, 2R*)-2 methylcyclopropyl)amino)-4H-benzo[e][1,2,4]-thiadiazine 1,1-dioxide]	
< 500	O=S1(=O)N=C(NC2CC23CC3)Nc2cc(Cl)c(F)cc21 (stereo not shown) [Compound 28, 6-chloro-7-fluoro-3-(spiro[2.2]pentan-1-ylamino)-4H-benzo[e][1,2,4]thiadiazine 1,1-dioxide]	
< 500	O=S1(=O)N=C(NC23CC(C2)C3)Nc2cc(Cl)c(F)cc21 [Compound 14, 3-(bicyclo[1.1.1]pentan-1-ylamino)-6-chloro-7-fluoro-4H-benzo[e][1,2,4] thiadiazine 1,1-dioxide]	IC50 [1]: < 500 nM; inhibition at 10 µM [1]: ≥ 50%
< 500	CC1(NC2=NS(=O)(=O)c3cc(F)c(Cl)cc3N2)CCC1 [Compound 24, 6-chloro-7-fluoro-3-((1-methylcyclobutyl)amino)-4H-benzo[e][1,2,4]thiadiazine 1,1-dioxide]	
< 500	O=S1(=O)N=C(NC2CC23CCC3)Nc2cc(Cl)c(F)cc21 (single isomer, unassigned) [Compound 17, (R*)-6-chloro-7-fluoro-3-(spiro[2.3]hexan-1-ylamino)-4H-benzo[e][1,2,4]-thiadiazine 1,1-dioxide]	
1000 to 2000	CC1(C)CC1NC1=NS(=O)(=O)c2cc(F)c(Cl)cc2N1 (single isomer, unassigned) [Compound 22, (R*)-6-chloro-3-((2,2-dimethylcyclopropyl)amino)-7-fluoro-4H-benzo[e][1,2,4] thiadiazine 1,1-dioxide]	
< 500	CC1(C)CC1NC1=NS(=O)(=O)c2cc(F)c(Cl)cc2N1 (stereo not shown) [Compound 20, 6-chloro-3-((2,2-dimethylcyclopropyl)amino)-7-fluoro-4H-benzo[e][1,2,4] thiadiazine 1,1-dioxide]	
500 to 1000	CC1(C)CC1NC1=NS(=O)(=O)c2cc(F)c(Cl)cc2N1 (single isomer, unassigned) [Compound 21, (S*)-6-chloro-3-((2,2-dimethylcyclopropyl)amino)-7-fluoro-4H benzo[e][1,2,4] thiadiazine 1,1-dioxide]	
1000 to 2000	CC1(C)CC1NC1=NS(=O)(=O)c2cc(F)ccc2N1 (stereo not shown) [Compound 5, 3-((2,2-dimethylcyclopropyl)amino)-7-fluoro-4H-benzo[e][1,2,4]thiadiazine 1,1-dioxide]	
≥ 2000	O=S1(=O)N=C(NC2CC23CC3)Nc2cc(Cl)c(F)cc21 (single isomer, unassigned) [Compound 29, (S*)-6-chloro-7-fluoro-3-(spiro[2.2]pentan-1-ylamino)-4H-benzo[e][1,2,4]-thiadiazine 1,1-dioxide]	
< 500	CC1(NC2=NS(=O)(=O)c3cc(F)ccc3N2)CCC1 [Compound 2, 7-fluoro-3-((1-methylcyclobutyl)amino)-4H-benzo[e][1,2,4]thiadiazine 1,1-dioxide]	
1000 to 2000	C[C@@H]1CC1NC1=NS(=O)(=O)c2cc(F)c(Cl)cc2N1 (mixture of isomers) [Compound 25, (rac)-trans-6-chloro-7-fluoro-3-((2-methylcyclopropyl)amino)-4H-benzo[e][1,2,4|thiadiazine 1,1-dioxide]	% inhibition of Insulin (Average Inhibition (%)) [1]: C (C is equal to 10-25% inhibition)
